Values joined by “and” are separate entries in the source; they are usually repeats but may differ in a detail not shown here. Equal entries are not always repeated.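 The compound was tested at five concentrations on cells cultured in 96-well plates, with a 48-hour exposure period. GI50 is the concentration that inhibits growth by half. TGI marks complete inhibition of growth.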
Columns and labels:
Test in all cases: NCI-60 cell line screen, 48 h
[1] = tested on: OVCAR-5 ovarian
[2] = tested on: HOP-62 NSCLC
[3] = tested on: U251 CNS
[4] = tested on: SNB-75 CNS
[5] = tested on: A498 renal
[6] = tested on: SW-620 colon
[7] = tested on: IGROV1 ovarian
[8] = tested on: UACC-257 melanoma
[9] = tested on: MCF7 breast
[10] = tested on: SK-MEL-2 melanoma

Work on O=C(O)Cn1ccnc1[N+](=O)[O-] yielded a TGI [1] of over 100 µM, a TGI [2] of over 100 µM and a TGI [3] of over 100 µM. The TGI [4] was over 100 µM, the TGI [5] was over 100 µM and the TGI [6] was over 100 µM. The TGI [7] was over 100 µM, the TGI [8] was over 100 µM and the TGI [9] was over 100 µM. It also gave a TGI [10] of over 100 µM.

With COc1ccc2[nH]c(-c3ccccc3)cc2c1 the GI50 [1] was over 100 µM, the TGI [1] was over 100 µM and the GI50 [2] was over 100 µM. The TGI [2] was over 100 µM, the GI50 [3] was over 100 µM and the TGI [3] was over 100 µM. The GI50 [4] was over 100 µM, the TGI [4] was over 100 µM and the GI50 [5] was 20.8 µM. It also gave a TGI [5] of over 100 µM, a GI50 [6] of over 100 µM and a TGI [6] of over 100 µM. For the same compound, the GI50 [7] was over 100 µM, the TGI [7] was over 100 µM and the GI50 [8] was over 100 µM. It also gave a TGI [8] of over 100 µM, a GI50 [9] of 86.6 µM and a TGI [9] of over 100 µM. The GI50 [10] was over 100 µM and the TGI [10] was over 100 µM.

CN(C)C(=O)SC1=C(c2c(Cl)cccc2Cl)C(=O)c2ccccc21 gave a GI50 [1] of 15.5 µM, a TGI [1] of 30.8 µM and a GI50 [2] of 18.7 µM. It also gave a TGI [2] of 36.7 µM, a GI50 [3] of 8.33 µM and a TGI [3] of 23 µM. The GI50 [4] was 7.94 µM, the TGI [4] was 23.9 µM and the GI50 [5] was 16.1 µM. For the same compound, the TGI [5] was 31.7 µM, the GI50 [6] was 2.17 µM and the TGI [6] was 5.01 µM. It also gave a GI50 [7] of 4.78 µM, a TGI [7] of 11.4 µM and a GI50 [8] of 5.16 µM. The TGI [8] was 9.81 µM, the GI50 [9] was 2.51 µM and the TGI [9] was 7.73 µM. For the same compound, the GI50 [10] was 7.12 µM and the TGI [10] was 13.7 µM.

In the case of CN(C)CCCN1c2ccccc2Sc2ccc(Cl)cc21, the GI50 [1] is reported as 5.2 µM and 11.8 µM, the TGI [1] is reported as 17.6 µM and 24.8 µM and the GI50 [2] is reported as 14.6 µM and 11.7 µM. The TGI [2] was 28.8 µM and 24.9 µM, the GI50 [3] was 2.62 µM and 3.46 µM and the TGI [3] was 7.9 µM and 14.4 µM. The GI50 [4] was 4.63 µM and 6.09 µM, the TGI [4] was 19.7 µM and 23 µM and the GI50 [5] was 10.5 µM and 3.46 µM. The TGI [5] was 23.7 µM and 16.6 µM, the GI50 [6] was 3.57 µM and 3.69 µM and the TGI [6] was 13.7 µM and 14.6 µM. For the same compound, the GI50 [7] was 11.7 µM and 4.63 µM, the TGI [7] was 26.7 µM and 18.4 µM and the GI50 [8] was 2.08 µM and 3.24 µM. The TGI [8] was 4.33 µM and 13 µM, the GI50 [9] was 3.15 µM and 3.46 µM and the TGI [9] was 12.6 µM and 13.7 µM. The GI50 [10] was 3.81 µM and 5.52 µM and the TGI [10] was 13.4 µM and 19.5 µM.

For CCc1cccc(CC)c1/C=C/c1cncc(C(=O)NC)c1, the GI50 [1] was over 17.6 µM, the TGI [1] was over 25 µM and the GI50 [2] was 9.88 µM. It also gave a TGI [2] of over 25 µM, a GI50 [3] of 10.6 µM and a TGI [3] of over 25 µM. The GI50 [4] was 7.08 µM, the TGI [4] was over 25 µM and the GI50 [5] was 8.68 µM. For the same compound, the TGI [5] was over 22.2 µM, the GI50 [6] was 10.5 µM and the TGI [6] was over 25 µM. For the same compound, the GI50 [7] was over 21.7 µM, the TGI [7] was over 25 µM and the GI50 [8] was over 13.5 µM. For the same compound, the TGI [8] was over 25 µM, the GI50 [9] was 7.74 µM and the TGI [9] was over 25 µM. The GI50 [10] was 10.9 µM and the TGI [10] was over 22.6 µM.

COc1cc(O)c(C(C)=O)c(O)c1 gave a TGI [1] of over 100 µM, a TGI [2] of over 100 µM and a TGI [3] of over 100 µM. It also gave a TGI [4] of over 100 µM, a TGI [5] of over 100 µM and a TGI [6] of over 100 µM. It also gave a TGI [7] of over 100 µM, a TGI [8] of over 100 µM and a TGI [9] of over 100 µM. For the same compound, the TGI [10] was over 100 µM.

In the case of Cc1ccc(/C=C2\CNC/C(=C\c3ccc(C)cc3)C2=O)cc1, the GI50 [1] is reported as 1.89 µM, the TGI [1] is reported as 3.56 µM and 33.9 µM and the GI50 [2] is reported as 3.26 µM. The TGI [2] was 9.75 µM and 7.33 µM, the GI50 [3] was 0.227 µM and the TGI [3] was 0.707 µM and 1.76 µM. The GI50 [4] was 8.74 µM, the TGI [4] was 68.1 µM and the GI50 [5] was 1.63 µM. For the same compound, the TGI [5] was 3.36 µM and 3.56 µM, the GI50 [6] was 0.473 µM and the TGI [6] was 2.11 µM and 8.36 µM. For the same compound, the GI50 [7] was 3.64 µM, the TGI [7] was 4.92 µM and the GI50 [8] was 1.71 µM. The TGI [8] was 3.55 µM and 12.8 µM, the TGI [9] was over 100 µM and the GI50 [10] was 1.9 µM.

Compound CCCn1cnc2c(SCc3ccccc3)nc(N)nc21 has a GI50 [1] of over 100 µM, a TGI [1] of over 100 µM and a GI50 [2] of over 100 µM. It also gave a TGI [2] of over 100 µM, a GI50 [3] of 41.4 µM and a TGI [3] of over 100 µM. It also gave a GI50 [4] of over 100 µM, a TGI [4] of over 100 µM and a GI50 [5] of 19.7 µM. It also gave a TGI [5] of 75.2 µM, a GI50 [6] of over 100 µM and a TGI [6] of over 100 µM. For the same compound, the GI50 [7] was over 100 µM, the TGI [7] was over 100 µM and the GI50 [8] was over 100 µM. For the same compound, the TGI [8] was over 100 µM, the GI50 [9] was over 100 µM and the TGI [9] was over 100 µM.

For O=C(Nc1ccc(Cl)cc1)Nc1ccccc1CNc1nc(Nc2ccc(OCCN3CCCC3)cc2)ncc1Cl, the GI50 [1] was 1.1 µM, the TGI [1] was 2.7 µM and the GI50 [2] was 1.28 µM. For the same compound, the TGI [2] was 3.88 µM, the GI50 [4] was 2.1 µM and the TGI [4] was 9.28 µM. The GI50 [5] was 5.22 µM, the TGI [5] was 12.3 µM and the GI50 [6] was 1.12 µM. For the same compound, the TGI [6] was 2.67 µM, the GI50 [7] was 1.62 µM and the TGI [7] was 5.72 µM. It also gave a GI50 [8] of 0.993 µM, a TGI [8] of 2 µM and a GI50 [9] of 0.895 µM. It also gave a TGI [9] of 1.84 µM, a GI50 [10] of 8.99 µM and a TGI [10] of 17.4 µM.

CC[C@H](C)[C@H](NC(=O)[C@H]1CCCCN1C)C(=O)N(C)[C@H](C[C@@H](OC(C)=O)c1nc(C(=O)N[C@@H](Cc2ccccc2)C[C@H](C)C(=O)OC)cs1)C(C)C was tested, and the GI50 [1] was 0.000583 µM and 0.0025 µM, the TGI [1] was over 25 µM and the GI50 [2] was 0.00052 µM and 0.0025 µM. For the same compound, the TGI [2] was over 25 µM, the GI50 [3] was 0.000376 µM and 0.0025 µM and the TGI [3] was over 25 µM. For the same compound, the GI50 [4] was 0.000335 µM and 0.0025 µM, the GI50 [5] was 0.000267 µM and < 0.0025 µM and the TGI [5] was under 0.0025 µM. The TGI [6] was over 25 µM, the GI50 [7] was 0.002 µM and 0.0025 µM and the TGI [7] was over 25 µM. The GI50 [8] was 8.72 µM, the TGI [8] was over 25 µM and the TGI [9] was over 25 µM. For the same compound, the GI50 [10] was 0.000463 µM and < 0.0025 µM and the TGI [10] was under 0.0025 µM.

CC[C@@]1(O)C(=O)OCc2c1cc1n(c2=O)Cc2cc3c(N)cccc3nc2-1 was tested, and the GI50 [1] was 0.0763 µM, the TGI [1] was 1.1 µM and the GI50 [2] was 0.00637 µM. The TGI [2] was 0.0489 µM, the GI50 [3] was 0.00889 µM and the TGI [3] was 1.55 µM. The TGI [4] was 0.0711 µM and 0.231 µM, the GI50 [5] was 0.0896 µM and the TGI [5] was 0.611 µM. It also gave a TGI [6] of 16.3 µM, a TGI [7] of 6.26 µM and a TGI [8] of 2.99 µM. The GI50 [9] was 0.00482 µM, the TGI [9] was 4.85 µM and the TGI [10] was 1.99 µM.

O=C(Nc1ccccc1O)c1ccc(CNC(=O)c2ccsc2Nc2ccnc(C(F)(F)F)c2)cc1 showed a GI50 [1] of 2.05 µM, a TGI [1] of 14.7 µM and a GI50 [2] of 7.84 µM. The TGI [2] was over 100 µM, the GI50 [3] was 1.65 µM and the TGI [3] was 5.07 µM. The GI50 [4] was 2.57 µM, the TGI [4] was 43.5 µM and the GI50 [5] was 0.787 µM. The TGI [5] was 3.01 µM, the GI50 [6] was 2.5 µM and the TGI [6] was 10.5 µM. For the same compound, the GI50 [7] was 2.8 µM, the TGI [7] was 13.5 µM and the GI50 [8] was 1.52 µM. The TGI [8] was 7.03 µM, the GI50 [9] was 2.03 µM and the TGI [9] was 10.4 µM. It also gave a GI50 [10] of 2.1 µM and a TGI [10] of 6.26 µM.

NC(=O)c1cc(I)ccc1NC(=O)COc1ccccc1 showed a GI50 [1] of 2.24 µM, a TGI [1] of over 100 µM and a GI50 [2] of 0.598 µM. It also gave a TGI [2] of 12.4 µM, a GI50 [3] of 0.365 µM and a TGI [3] of 10.8 µM. The GI50 [4] was 0.316 µM, the TGI [4] was 4.49 µM and the GI50 [5] was 1.27 µM. It also gave a TGI [5] of 7.26 µM, a GI50 [6] of 0.432 µM and a TGI [6] of over 100 µM. It also gave a GI50 [7] of 2.34 µM, a TGI [7] of over 100 µM and a GI50 [8] of 41.7 µM. The TGI [8] was over 100 µM, the GI50 [9] was 0.279 µM and the TGI [9] was over 100 µM. For the same compound, the GI50 [10] was 0.566 µM and the TGI [10] was 16.3 µM.

Cc1cc(=O)oc2cc(OCCn3c(C)nn(-c4ccc(Cl)cc4)c3=O)ccc12 was tested, and the GI50 [1] was 21.9 µM, the TGI [1] was over 100 µM and the GI50 [2] was 3.05 µM. The TGI [2] was 32.9 µM, the GI50 [3] was 4.18 µM and the TGI [3] was 72.3 µM. For the same compound, the GI50 [4] was 2.22 µM, the TGI [4] was 15.1 µM and the GI50 [5] was 1.13 µM. It also gave a TGI [5] of 31.9 µM, a GI50 [6] of 2.2 µM and a TGI [6] of over 100 µM. It also gave a GI50 [7] of 35 µM, a TGI [7] of over 100 µM and a GI50 [9] of 2.7 µM. It also gave a TGI [9] of over 100 µM, a GI50 [10] of 18.2 µM and a TGI [10] of over 100 µM.

Source: PubChem BioAssay (NCI)
